From patent EP4050002A1, “ANTI-PROLIFERATIVE AGENTS” (First Health Pharmaceuticals B.V., priority 2021, dated 2022)
Where two headings read alike, the source gives them in different places.

Assay: Tissue distribution in xenograft mice (conditions #1, #1A, #1B)
Type: in vivo, male FOXN1nu/nu nude mice
Conditions: for Kp at 4 h: mouse, brain, ip, read-out: Brain to plasma
Procedure: The pharmacokinetic study was performed in male Swiss albino mice from Hylasco Biotechnology Pvt. Ltd. (A Charles River technology Licensee). The tissue distribution study was performed in male Swiss albino mice and in male FOXN1^nu/nu nude mice (Envigo spa). The efficacy study was performed in male FOXN1^nu/nu nude mice.
At study closure, animals were sacrificed and tumor and tissues removed for further studies of distribution and morphology. Mice from the efficacy study were anesthetized using gaseous anesthesia and blood samples collected in Li-Heparin containing tubes by intracardiac puncture, stored on ice, centrifuged within 15 minutes to separate plasma at 1540 ref (5000 rpm), at 4°C for 10 minutes; plasma was separated and transferred to new tubes. After blood collection, tissues for bio-analyses were separated, washed in PBS, dried and frozen at -80±10°C until homogenization.
The levels of compound in the tissues were quantified by LC-MS/MS as follows.
UHPLC-MS/MS analysis was performed on a Q-Exactive Plus (ThermoFisher Scientific) mass spectrometer coupled with an UHPLC Ultimate 3000SD (ThermoFisher Scientific).
Chromatographic separation of the analytes was performed on an Acquity UPLC BEH Shield RP18 column ([…], 2.1 mm x 50 mm, […]) with a column temperature at 40°C.
The flow rate was 250 µl/min. The mobile phase was a gradient of a mixture of 10 mM ammonium acetate with 0.1% formic acid (phase A) and Acetonitrile:Methanol (50:50 v/v) as phase B. The gradient profile used began with an elution of (A:B) 70:30 v/v for 1 min, followed by a gradual decrease of A to (A:B) 5:95 v/v until 5 min, a constant gradient for 1 min of 95% of B, then a gradual decrease of B to the initial condition until 7 min and then a final conditioning of the column for about 4 min in order to equilibrate for the next injection.
The electrospray ionization source (ESI) was operated in positive mode. Parallel reaction monitoring (PRM) methods was applied to quantify compound 5. The selected transitions m/z 414.20-243.10 for compound 5 and m/z 360.18- 243.12 for the internal standard (compound 4) were considered. Each sample was assayed in duplicate.
Preparation of plasma samples: Mouse plasma (10 µl) was placed into a tube containing 188 µl of a chilled Acetonitrile:Methanol solution (50:50 v/v) in order to precipitate proteins. Each sample was spiked with a fixed concentration (200 nM) of compound 4 used as internal standard. After 1 min of vortex, the mixture was centrifuged at 10,000 x g for 15 minutes at 4 °C to separate the protein material from the supernatant. The last one of each sample was transferred to a new sample tube and the solvent was evaporated under nitrogen stream. The dried material was re-suspended in 100 µl of mobile phase. The resulting solution was then analyzed by UHPLC-MS/MS without further modifications.
Preparation of tissue samples was as follows: the tissues of interest were washed briefly with chilled water to remove traces of blood, if necessary, and cut into small pieces, keeping them on ice during all the operations. Then the samples were transferred to a tube and homogenized in purified water using the homogenizer TissueRuptor of Qiagen. In general, 300 µl of purified water was added to 50 mg of tissue. The homogenized samples were centrifuged at 10,000 x g for 15 minutes at 4°C to pellet cell debris, and then the supernatant were transferred to a clean tube in order to perform protein precipitation using a chilled solution of Acetonitrile:Methanol (50:50 v/v) and vortexed for 1 min. Before protein precipitation a fixed concentration (200 nM) of internal standard (Compound 4) was added in every sample. After centrifugation, the supernatant was separated from protein pellet and dried under nitrogen stream. 50 µl of mobile phase was used to re-suspend each dried sample. […]

[1] = #1: single I.P. administration, 45 mg/Kg, withdrawal 4 hours after administration
[2] = #1A: two I.P. administration, 45 mg/Kg, at distance of 48 hours, withdrawal 4 hours after last administration
[3] = #1B: 6 weeks of repeated I.P. administration, 45 mg/kg, every 48 hours, withdrawal 4 hours after last administration

CCCCc1cn(-c2ccc(-c3nnc(-c4ccccc4C(F)(F)F)o3)cc2)nn1 [Compound 5]
Adipose to plasma [1]: 14.3
Breast to plasma [1]: 42.9
Intestine to plasma [1]: 5.8
Kidney to plasma [1]: 23.1
Liver to plasma [1]: 7.3
Lung to plasma [1]: 12.6
Lymph node to plasma [1]: 17.9
Plasma [1]: 2099.8 ng/mL
Spleen to plasma [1]: 26.1
Tumor to plasma [1]: 11.3
Adipose to plasma [2]: 31.8
Breast to plasma [2]: 10.9
Intestine to plasma [2]: 4.2
Kidney to plasma [2]: 21.6
Liver to plasma [2]: 12.9
Lung to plasma [2]: 10.3
Lymph node to plasma [2]: 137.7
Plasma [2]: 2188.6 ng/mL
Spleen to plasma [2]: 23.3
Tumor to plasma [2]: 39.9
Adipose to plasma [3]: 233.3
Breast to plasma [3]: 18.5
Intestine to plasma [3]: 10.9
Kidney to plasma [3]: 18.3
Liver to plasma [3]: 12.4
Lung to plasma [3]: 9.6
Lymph node to plasma [3]: 27.5
Plasma [3]: 4658.9 ng/mL
Spleen to plasma [3]: 21.4
Tumor to plasma [3]: 14.9
Kp at 4 h (45 mg/kg, #1: single I.P. administration, 45 mg/Kg, withdrawal 4 hours after administration): 0.5
Kp at 4 h (45 mg/kg, #1A: two I.P. administration, 45 mg/Kg, at distance of 48 hours, withdrawal 4 hours after last administration): 1.1
Kp at 4 h (45 mg/kg, #1B: 6 weeks of repeated I.P. administration, 45 mg/kg, every 48 hours, withdrawal 4 hours after last administration): 0.7
